Values joined by “and” are separate entries in the source; they are usually repeats but may differ in a detail not shown here. Equal values may be shown once. Inconclusive results and toxic doses are left out. The calls were made as follows: active = survival T/C of 150% or more; inactive = T/C below 125% in these data.
System: P388 leukemia ip, CD2F1 mice, survival T/C
Assay: NCI In Vivo Anticancer Drug Screen. Data for tumor model P388 Leukemia (intraperitoneal) in CD2F1 (CDF1) mice
Conditions: endpoint: median survival time, higher = longer survival
In short: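 Mice carrying the transplanted tumor received test compound or vehicle. Survival was recorded in each group, and the value is the treated-group measurement divided by that of the vehicle-treated control group.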

[1] = dose: 240.0 mg/kg/injection, schedule: Q01DX005 (ip), vehicle: saline with Tween-80
[2] = dose: 12.5 mg/kg/injection, schedule: Q01DX005 (ip), vehicle: saline with Tween-80
[3] = dose: 25.0 mg/kg/injection, schedule: Q01DX005 (ip), vehicle: saline with Tween-80
[4] = dose: 60.0 mg/kg/injection, schedule: Q01DX005 (ip), vehicle: Klucel (hydroxypropylcellulose) (HPC)
[5] = dose: 120.0 mg/kg/injection, schedule: Q01DX005 (ip), vehicle: Klucel (hydroxypropylcellulose) (HPC)
[6] = dose: 50.0 mg/kg/injection, schedule: Q01DX009 (ip), vehicle: Klucel (hydroxypropylcellulose) (HPC)
[7] = dose: 100.0 mg/kg/injection, schedule: Q01DX009 (ip), vehicle: Klucel (hydroxypropylcellulose) (HPC)
[8] = dose: 200.0 mg/kg/injection, schedule: Q01DX009 (ip), vehicle: Klucel (hydroxypropylcellulose) (HPC)

Measured: T/C

Clc1ccc(CSc2ncnc3nc[nH]c23)cc1
inactive: dose: 100.0 mg/kg/injection, schedule: Q04DX003 (ip), vehicle: saline with Tween-80 109 % of control | dose: 200.0 mg/kg/injection, schedule: Q04DX003 (ip), vehicle: saline with Tween-80 104 % of control | dose: 400.0 mg/kg/injection, schedule: Q04DX003 (ip), vehicle: saline with Tween-80 109 % of control

COc1ccc(C2COc3cc4c(cc3C2)OCO4)cc1 (stereo not given)
inactive: dose: 60.0 mg/kg/injection, schedule: Q01DX005 (ip), vehicle: saline with Tween-80 98 % of control | dose: 120.0 mg/kg/injection, schedule: Q01DX005 (ip), vehicle: saline with Tween-80 98 % of control | [1] 96 % of control

O=C1[N-]C(=S)c2cccn21.O=C1[N-]C(=S)c2cccn21.[Pd+2]
inactive: [2] 103 % of control | [3] 103 % of control | dose: 50.0 mg/kg/injection, schedule: Q01DX005 (ip), vehicle: saline with Tween-80 99 % of control | dose: 100.0 mg/kg/injection, schedule: Q01DX005 (ip), vehicle: saline with Tween-80 99 % of control

CCNC1=CC(=O)c2ncccc2C1=O
inactive: dose: 3.13 mg/kg/injection, schedule: Q01DX009 (ip), vehicle: DMSO 99 % of control | dose: 6.25 mg/kg/injection, schedule: Q01DX009 (ip), vehicle: DMSO 100 % of control | dose: 12.5 mg/kg/injection, schedule: Q01DX009 (ip), vehicle: DMSO 99 % of control | dose: 25.0 mg/kg/injection, schedule: Q01DX009 (ip), vehicle: DMSO 95 % of control

COC(=O)c1nc(N)nc(C(=O)OC)c1C(=O)c1ccc2ccccc2c1
inactive: [4] 102 % of control | [5] 101 % of control

O=C(O/N=C1\C2CCC(C2)C1Cl)c1ccc([N+](=O)[O-])cc1 (stereo not given)
inactive: dose: 12.5 mg/kg/injection, schedule: Q01DX009 (ip), vehicle: saline with Tween-80 118 % of control | dose: 25.0 mg/kg/injection, schedule: Q01DX009 (ip), vehicle: saline with Tween-80 122 % of control | dose: 50.0 mg/kg/injection, schedule: Q01DX009 (ip), vehicle: saline with Tween-80 104 % of control

COC(=O)C(CCc1ccc([N+](=O)[O-])cc1)C(C)=O (stereo not given)
inactive: dose: 60.0 mg/kg/injection, schedule: Q01DX005 (ip), vehicle: saline 102 % of control | dose: 120.0 mg/kg/injection, schedule: Q01DX005 (ip), vehicle: saline 97 % of control | dose: 240.0 mg/kg/injection, schedule: Q01DX005 (ip), vehicle: saline 95 % of control

COc1ccc2c(=O)cc(-c3ccccc3)sc2c1
inactive: [4] 106 % of control | [5] 104 % of control | dose: 240.0 mg/kg/injection, schedule: Q01DX005 (ip), vehicle: Klucel (hydroxypropylcellulose) (HPC) 98 % of control

O=C(c1ccccc1)C1C(c2ccccc2)SC(c2ccccc2)CC1(O)Cl (stereo not given)
inactive: dose: 100.0 mg/kg/injection, schedule: Q04DX002 (ip), vehicle: Klucel (hydroxypropylcellulose) (HPC) 87 % of control | dose: 200.0 mg/kg/injection, schedule: Q04DX002 (ip), vehicle: Klucel (hydroxypropylcellulose) (HPC) 87 % of control | dose: 400.0 mg/kg/injection, schedule: Q04DX002 (ip), vehicle: Klucel (hydroxypropylcellulose) (HPC) 87 % of control

O=C1/C(=C/c2ccc(/C=C3\CCc4ccccc4C3=O)cc2)CCc2ccccc21
inactive: [6] 102 % of control | [7] 99 % of control | [8] 101 % of control

CCCc1c(-n2[nH]c(=O)n(-c3ccccc3)c2=O)c(=O)n(C)c(=O)n1C
inactive: [6] 110 % of control | [7] 105 % of control | [8] 95 % of control

CC[N+](C)(CC)CCOC(C)=O
inactive: dose: 6.25 mg/kg/injection, schedule: Q01DX001 (ip), vehicle: saline 100 % of control | dose: 12.5 mg/kg/injection, schedule: Q01DX001 (ip), vehicle: saline 100 % of control | dose: 25.0 mg/kg/injection, schedule: Q01DX001 (ip), vehicle: saline with Tween-80 101 % of control | dose: 25.0 mg/kg/injection, schedule: Q01DX001 (ip), vehicle: saline 98 % of control

CC(N=c1cc2n(-c3ccc(Cl)cc3)c3ccccc3nc-2cc1Nc1ccc(Cl)cc1)c1ccccc1 (stereo not given)
inactive: dose: 1.87 mg/kg/injection, schedule: Q01DX005 (ip), vehicle: saline with Tween-80 98 % of control | dose: 3.75 mg/kg/injection, schedule: Q01DX005 (ip), vehicle: saline with Tween-80 101 % of control | dose: 7.5 mg/kg/injection, schedule: Q01DX005 (ip), vehicle: saline with Tween-80 104 % of control and 86 % of control | [1] 88 % of control

O=C1CN(c2ccccc2)CC(=O)N2Cc3ccccc3CN12
inactive: dose: 6.25 mg/kg/injection, schedule: Q01DX005 (ip), vehicle: saline with Tween-80 96 % of control | [2] 100 % of control | [3] 98 % of control
